Values quoted from earlier work as cited in patent publication US20080305060A1, “AQUEOUS-ALCOHOLIC DEPIGMENTING GELS” (GALDERMA RESEARCH & DEVELOPMENT, priority 2005, published 2008).
Read-outs that look alike come from different tables or passages of the source.

Oc1ccc(O)cc1 [hydroquinone]
Incidence of irritation (10% hydroquinone concentration): relatively high | Incidence of irritation (hydroquinone concentration of 2%): virtually nonexistent | Incidence of irritation (preparations with a 5% dose of hydroquinone): reduces greatly
